The test system of one data set is HTT mRNA. The experiment in a line: RT-qPCR splicing assay, HTT mRNA canonical (CJ) and alternative (AJ) junction. The format is cell-based, human. The conditions noted are these: Homo sapiens; for AC50: HTT alternative junction mRNA increase, read-out: HTT AJ (increase in alternative junction mRNA, AC50). Put shortly: (§1)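 A673 or K562 cells treated 24 h at 37 °C with 11-point 3-fold dilutions (top final 10 uM, DMSO ≤0.25%). Lysates analysed by one-step RT-qPCR for canonical (CJ) and alternative-exon (AJ) junctions, normalized to GAPDH, GUSB or PPIA. ΔΔCt vs DMSO, RQ = 2^(−ΔΔCt), expressed as percentage response.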
Background: Quantitative PCR measures a nucleic acid by following its amplification.

The subject of another data set is SMN2 mRNA. The data set can be described thus: RT-qPCR splicing assay, SMN2 mRNA. In kind it is cell-based, human. The following applies: Homo sapiens, canonical junction qPCR panel, Table 4; read-out: SMN2 IC50 (decrease in CJ mRNA levels). Put shortly: as §1
The test system of the next data set is HTT. The data set can be described thus: HiBiT protein abundance assay, HTT (K562 HiBiT knock-in). The format is cell-based, human. The following applies: HiBiT knock-in K562 cells, 24 hours, top dose 10 μM. Put shortly:
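Steps: seed HiBiT knock-in K562 cells; add compound in 10-point 3-fold series from 10 μM final; incubate 24 h, 37 °C; add lytic HiBiT reagent, shake 5 min, wait 10 min; read luminescence. Normalize to parental K562 and DMSO controls, fit 4PL, take IC50.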
(With HiBiT, luminescence reflects the tagged protein that the partner subunit can reach.)

The next data set has as its system Target C. The data set can be described thus: HiBiT protein abundance assay, Target C (K562 HiBiT knock-in). The format is cell-based, human. The conditions noted are these: HiBiT knock-in K562 cells, 24 hours, top dose 10 μM. Put shortly:
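K562 HiBiT knock-in cells (10000/well) were treated 24 h at 37° C with a 10-point 3-fold dilution series (top 10 μM final, ≤0.25% DMSO). HiBiT luminescence was read after lytic LgBiT detection. Percent response used unmodified K562 and DMSO-treated knock-in controls, and IC50 came from a four-parameter fit at 50% of untreated.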

In another data set the test system is K562 cells. The data set can be described thus: Cell Titer Glo 2.0 cell viability (toxicity) assay, K562. The following applies: 500 cells/well, 72 hours. A general note: In ATP-based viability assays light output follows the ATP content of the culture.
Setting [1] is: RT-qPCR, HTT canonical junction mRNA decrease, read-out: HTT CJ (decrease in canonical junction mRNA, IC50).
The mark [2] stands for this setting: canonical junction qPCR panel, Table 4, read-out: HTT IC50 (decrease in CJ mRNA levels).

A word on the AC50: it is the concentration at which the activity in the assay is half-maximal. Broadly, the IC50 is the concentration that inhibits the measured activity by half.

Like-named read-outs stand apart in the source and are kept apart here.

On to `Cc1cn2cc(-c3ncc4cc(N5C[C@@H](C)N[C@@H](C)C5)ccc4n3)cc(F)c2n1` [Compound 773, 6-[(3R,5S)-3,5-dimethylpiperazin-1-yl]-2-{8-fluoro-2-methylimidazo[1,2-a]pyridin-6-yl}quinazoline], for which the AC50 in the data set on HTT mRNA (RT-qPCR) is 1000 to 10000 nM. Moreover, the IC50 with HTT mRNA (setting [1]) was 1000 to 10000 nM; with HTT mRNA (setting [2]), 1000 to 10000 nM; in the data set on SMN2 mRNA it was under 100 nM; with HTT, 100 to 1000 nM; in the data set on Target C it was 100 to 1000 nM. For the same molecule, the “Effect of Exemplary Compounds on Cell Viability, K562” value (shortened to “Effect of Exemplary Compounds”) with K562 cells is listed as “B (B represents 100-1000 nM)”.
For the molecule `Cc1cn2cc(-c3nc(C(=O)NC4CCC4)c4cc(N5C[C@@H](C)N[C@@H](C)C5)ccc4n3)cc(F)c2n1` [Compound 779, N-cyclobutyl-6-[(3R,5S)-3,5-dimethylpiperazin-1-yl]-2-{8-fluoro-2-methylimidazo[1,2-a]pyridin-6-yl}quinazoline-4-carboxamide], in the data set on HTT mRNA (RT-qPCR), the AC50 lay within 1000 to 10000 nM. The half-inhibitory concentration (IC50) in the data set with HTT mRNA (setting [1]) is 1000 to 10000 nM; with HTT mRNA (setting [2]) it was 1000 to 10000 nM; in the data set with SMN2 mRNA, under 100 nM; in the data set with HTT, 100 to 1000 nM; in the data set with Target C it was 100 to 1000 nM. In the data set on K562 cells, the “Effect of Exemplary Compounds” value was “A (A represents <100 nM)”.
As for `Cc1cn2cc(-c3ncc4cc(N5C[C@H](C)N[C@@H](C)C5)ccc4n3)cc(F)c2n1` [Compound 803, 6-[(3S,5S)-3,5-dimethylpiperazin-1-yl]-2-{8-fluoro-2-methylimidazo[1,2-a]pyridin-6-yl}quinazoline], the AC50 with HTT mRNA (RT-qPCR) is 100 to 1000 nM. Besides, the IC50 is 100 to 1000 nM in the data set on HTT mRNA (setting [1]); 100 to 1000 nM with HTT mRNA (setting [2]); under 100 nM in the data set on SMN2 mRNA; 100 to 1000 nM in the data set with HTT; 100 to 1000 nM in the data set with Target C. The “Effect of Exemplary Compounds” value in the data set on K562 cells is “A (A represents <100 nM)”.

Values taken from patent US20250092065A1, “2-(INDAZOL-5-YL)-6-(PIPERIDIN-4-YL)-1,7-NAPHTHYRIDINE DERIVATIVES AND RELATED COMPOUNDS AS MODULATORS FOR SPLICING NUCLEIC ACIDS AND FOR THE TREATMENT OF PROLIFERATIVE DISEASES” (REMIX THERAPEUTICS INC., priority 2022, published 2025).
